We go through four compounds from patent US6867305B2, “Synthesis of epothilones, intermediates thereto and analogues thereof” (Sloan-Kettering Institute for Cancer Research, priority 1996, dated 2005).

Data set [1] deals with CCRF-CEM human T-cell acute lymphoblastic leukemia cells. In words: Tumor cell growth inhibition in vitro (XTT, 72 h). The class given is cell-based. The conditions noted are these: CCRF-CEM; for pIC50: 72 h incubation. The protocol: The fresh medium containing each drug was replenished every 7-14 days. […] In each case ,the drug-exposed cells were resuspended in fresh media for a minimum of 4 days before the experiments for the cell-growth inhibition was carried out.
(§1) The cells were cultured at an initial density of 2-5×10^4 cells per ml. They were maintained in a 5% CO2-humidified atmosphere at 37° C. in RPMI mediun 1640 (GIBCO/BRL) containing penicillin (100 units/ml), streptomycin (100 μg/ml) (GIBCO/BRL), and 5% heat-inactivated fetal bovine serum. For solid tumor cells growing in a monolayer (such as MCF-7/Adr), cytotoxicitiy of the drug was determined in 96-well microtiter plates by using the sulforhodamine B method as described by Skehan et al (23) for measuring the cellular protein content. For cells that were grown in suspension (such as CCRF-CEM and its sublines), cytotoxicitiy was measured by using the 2,-3-bis(2-methoxy-4-nitro-5-sulfophenyl)-5carboxanilide)-2H terazodium hydroxide (XTT)-microculture tetrazonium method (24) in duplicate in 96-well microtiter plates. For both methods, the absorbance of each well was measured with a microplate reader (EL-340, Bio-Tek, Burlington, Vt.). Each run entailed six or seven concentrations of the tested drugs. Dose-effect relationship data were analyzed with the median-effect plot (25) by using a previously described computer program (26).
(Formazan colour is commonly taken as a measure of viable cells.)

The test system of data set [2] is HL-60 human promyelocytic leukemia. In words: Tumor cell growth inhibition in vitro. The format is cell-based. How it is done: as §1, with “They were maintained in a 5% CO2-humidified atmosphere at 37° C. in RPMI mediun 1640 (GIBCO/BRL) containing penicillin (100 units/ml), streptomycin (100 μg/ml) (GIBCO/BRL), and 5% heat-inactivated fetal bovine serum.” left out

Data set [3] has as its system HT-29 human colon adenocarcinoma. As to the kind of experiment: Tumor cell growth inhibition in vitro. The class given is cell-based. The protocol: as §1, with “They were maintained in a 5% CO2-humidified atmosphere at 37° C. in RPMI mediun 1640 (GIBCO/BRL) containing penicillin (100 units/ml), streptomycin (100 μg/ml) (GIBCO/BRL), and 5% heat-inactivated fetal bovine serum.” left out

Data set [4] deals with K562 human chronic myeloblastic leukemia. In words: Tumor cell growth inhibition in vitro. The format is cell-based. How it is done:
as §1, with “They were maintained in a 5% CO2-humidified atmosphere at 37° C. in RPMI mediun 1640 (GIBCO/BRL) containing penicillin (100 units/ml), streptomycin (100 μg/ml) (GIBCO/BRL), and 5% heat-inactivated fetal bovine serum.” left out

Data set [5] relates to MCF-7 human mammary adenocarcinoma. As to the kind of experiment: Tumor cell growth inhibition in vitro. The class given is cell-based. The protocol: as §1, with “They were maintained in a 5% CO2-humidified atmosphere at 37° C. in RPMI mediun 1640 (GIBCO/BRL) containing penicillin (100 units/ml), streptomycin (100 μg/ml) (GIBCO/BRL), and 5% heat-inactivated fetal bovine serum.” left out

Data set [6] has as its system MX-1 human mammary carcinoma. As to the kind of experiment: Tumor cell growth inhibition in vitro. The class given is cell-based. To be noted: Homo sapiens, MX1. How it is done:
as §1, with “They were maintained in a 5% CO2-humidified atmosphere at 37° C. in RPMI mediun 1640 (GIBCO/BRL) containing penicillin (100 units/ml), streptomycin (100 μg/ml) (GIBCO/BRL), and 5% heat-inactivated fetal bovine serum.” left out

Data set [7] deals with PC-3 human prostate adenocarcinoma. In words: Tumor cell growth inhibition in vitro. The class given is cell-based. The protocol: as §1, with “They were maintained in a 5% CO2-humidified atmosphere at 37° C. in RPMI mediun 1640 (GIBCO/BRL) containing penicillin (100 units/ml), streptomycin (100 μg/ml) (GIBCO/BRL), and 5% heat-inactivated fetal bovine serum.” left out
The subject of data set [8] is SK-OV-3 human ovary adenocarcinoma. As to the kind of experiment: Tumor cell growth inhibition in vitro. The class given is cell-based. How it is done:
as §1, with “They were maintained in a 5% CO2-humidified atmosphere at 37° C. in RPMI mediun 1640 (GIBCO/BRL) containing penicillin (100 units/ml), streptomycin (100 μg/ml) (GIBCO/BRL), and 5% heat-inactivated fetal bovine serum.” left out

Data set [9] relates to HCT-116 colon carcinoma xenograft. In words: Human tumor xenograft in nude mice. The format is in vivo. To be noted: for Therapeutic Effect Rank Order: HCT-116, i.v. infusion. From the text: Therapeutic efficacy of cancer chemotherapeutic agents varies with various factors including the tumor models used and the dosage of drug and schedules and routes of administration. […] In the present studies, we intended to compare the therapeutic effects of drugs near their maximal tolerated doses by measuring the extent of body-weight decreases and/or lethality.
(§2) Depending on the tumor type, treatment started on day 10 to day 21 when subcutaneous tumor size reached 35-200 mm^3, except otherwise indicated. Tumor size and body-weight were recorded every other day (Q2D) and, for humane reasons, the animals were sacrificed when tumor size reached ≧10% of body-weight. Each group, including untreated control, consisted of 3-5 animals unless otherwise indicated.
(§3) Athymic nude mice bearing the nu/nu gene were used for all human tumor xenografts. Outbred, Swiss-background mice were obtained from Charles River Laboratories. Male mice 8 weeks or older weighing 22 g and up were used for most experiments. The drug was administered via the tail vein for 6 hr.-i.v. infusion. Each individual mouse was confined in a perforated Falcon polypropylene tube restrainer for drug administration. Tumor volume was assessed by measuring length×width×height (or width) using a caliper. The programmable Harvard PHD2000 syringe pump (Harvard Apparatus) with multi-track was used for i.v. infusion. […] All animal studies were conducted in accordance with the guidelines of the National Institutes of Health “Guide for the Care and Use of Animals” and the protocol approved by the Memorial Sloan-Kettering Cancer Center's Institutional Animal Care and Use Committee. In keeping with the policy of this committee for the humane treatment of tumor-bearing animals, mice were euthanized when tumors reached ≧10% of their total body weight.
(§4) Human tumor cells (5×10^6) or tumor tissue (30-50 mg) were implanted s.c. flank in nu/nu mice (Charles River Laboratories, Wilmington, Mass.). When tumor grew to a specified size, treatment was started by every-other day×5 with 6 hr i.v.-infusion, unless otherwise indicated. Tumor volume was measured with calipers in three dimensions (length×width×height or width). Body-weight changes and lethality were monitored every other day.
(In general: A xenograft is tissue or cells of one species grown in another, often human tumour cells in immunodeficient mice.)

The test system of a further data set is MCF-7/Adr. In words: Tumor cell growth inhibition in vitro. To be noted: for pIC50: MCF-7/Adr; for cross-resistance (fold of resistance vs parent cell line): MCF-7/Adr vs MCF-7. The class given is cell-based, human. How it is done: as §1, with “They were maintained in a 5% CO2-humidified atmosphere at 37° C. in RPMI mediun 1640 (GIBCO/BRL) containing penicillin (100 units/ml), streptomycin (100 μg/ml) (GIBCO/BRL), and 5% heat-inactivated fetal bovine serum.” left out

The subject of data set [10] is CCRF-CEM leukemia xenograft. The conditions noted are these: for body-weight reduction on day 28: CCRF-CEM-bearing nude mice, 15-azaEpoB 6 mg/kg Q2D×6. The protocol: Nude mice bearing well established CCRF-CEM tumor xenografts (average tumor size about 400 mm^3) were treated with 30 mg/kg of dEpoB or with 6 mg/kg of 15-azaEpoB, 6 hr-i.v. infusion Q2D×6 as shown in FIG. 37.
as §2, §3, §4

Where [11] appears, read: Homo sapiens, MCF7, MCF-7, read-out: IC50.
The mark [12] stands for this setting: HCT-116, dEpoB 30 mg/kg, Taxol 20 mg/kg, Q2Dx51x3, 6-hr i.v. infusion.
The mark [13] stands for this setting: CCRF-CEM, i.v. infusion, FIG. 5.
The mark [14] stands for this setting: Homo sapiens, K562, K562, read-out: IC50.
The mark [15] stands for this setting: CCRF/CEM, dEpoB 40 mg/kg, Taxol 20 mg/kg, Q2Dx4, 6-hr i.v. infusion.

pIC50: −log10 of the molar value. Values joined by “and” are separate entries in the source; they are usually repeats but may differ in a detail not shown here. Equal values may be shown once. Read-outs that look alike come from different tables or passages of the source.

As usually defined, the pIC50 is the IC50 on a negative log10 scale, so that one unit is a factor of ten. As for `CC(=O)O[C@H]1C(=O)[C@@]2(C)[C@H]([C@H](OC(=O)c3ccccc3)[C@]3(O)C[C@H](OC(=O)[C@H](O)[C@@H](NC(=O)c4ccccc4)c4ccccc4)C(C)=C1C3(C)C)[C@]1(OC(C)=O)CO[C@@H]1C[C@@H]2O` [Taxol, paclitaxel, reference compound], the pIC50 in data set [1] was 8.92; in data set [2] it was 8.96; in data set [3] it was 8.80; in [4] (Homo sapiens, K562, read-out: IC50), 8.54; in [5] (setting [11]), 8.62; in data set [6], 7.40. Also, the pIC50 in data set [7] was 7.55; in data set [8], 8.42. Moreover, the “Tumor Disappearance” value in data set [9] (setting [12]) is recorded as 3/3.
Turning to `C/C(=C\c1csc(C)n1)C1C[C@@H]2O[C@]2(C)CCC[C@H](C)[C@H](O)[C@@H](C)C(=O)C(C)(C)C(O)CC(=O)N1` (some centres unmarked) [aza-EpoB, aza-epothilone B], the pIC50 in data set [1] (Homo sapiens, read-out: IC50) is 8.68; in data set [2], 8.60; in [3], 8.49; in data set [4] (K562, listed as 15-aza-EpoB, read-out: IC50), 7.22; in data set [4] (K562, read-out: IC50) it was 8.40; in data set [5] (setting [11]), 8.37. For the same compound, the pIC50 in [6] was 8.62; in data set [7], 7.38; in [8], 7.80; in the data set on MCF-7/Adr (Homo sapiens, NCI/ADR-RES, read-out: IC50) it was 7.93. In addition, in the data set on MCF-7/Adr, the “cross-resistance (fold of resistance vs parent cell line)” value was 2.7 x. Moreover, in data set [10] (setting [13]), the “Therapeutic Effect Rank Order” value is recorded as “dEpoF>>>15-azaEpoB”. In [10] (CCRF-CEM, tumor about 400 mm^3, 15-azaEpoB 6 mg/kg, 6 hr-i.v. infusion Q2D×6), the “therapeutic effect on tumor growth” value is recorded as “Moderate suppression of tumor growth”. Moreover, the “body-weight reduction on day 28” value in data set [10] (dEpoF 30 mg/kg) is reported as “about 10%”.
For `C/C1=C/C[C@@H](/C(C)=C/c2csc(C)n2)OC(=O)C[C@H](O)C(C)(C)C(=O)[C@H](C)[C@@H](O)[C@@H](C)CCC1` [dEpoB, 12,13-desoxyepothilone B], the negative logarithm of the IC50 (pIC50) in [1] was 8.13; in data set [1] (Homo sapiens, 72 h), 8.02; in [2], 8.51; in [3] it was 8.32; in data set [4] (setting [14]) it was 8.44; in data set [4] (K562), 8.16. The negative logarithm of the IC50 (pIC50) was 8.40 in [5] (setting [11]); 8.42 in data set [5] (MCF-7); 7.66 in [6]; 7.68 in data set [7]; 8.46 in data set [8]; 8.15 in the data set on MCF-7/Adr (Homo sapiens, NCI/ADR-RES). Also, the pIC50 in the data set with MCF-7/Adr is 7.88. The “Therapeutic Effect Rank Order” value in data set [9] was “Taxol, CPT-11≈dEpoB, dEpoF”; in data set [10] (CCRF-CEM, i.v. infusion (dEpoB vs Taxol)), “dEpoB≈Taxol”. Besides, the “Lowest Average Tumor Size (T/C)” value in [9] (setting [12]) and in data set [10] (setting [15]) was 0 in each case. In addition, the figures for the “Tumor Disappearance” value in data set [9] (setting [12]) and in data set [10] (setting [15]) were 1/2 and 2/2, respectively.
For the compound `C/C1=C/C[C@@H](/C(C)=C/c2csc(CO)n2)OC(=O)C[C@H](O)C(C)(C)C(=O)[C@H](C)[C@@H](O)[C@@H](C)CCC1` [dEpoF, 12,13-Desoxyepothilone F], the “potency relative to dEpoB (times less potent)” value in data set [1] is “slightly less potent than dEpoB”. The negative logarithm of the IC50 (pIC50) was 8.57 in data set [1]; 9.15 in data set [2]; 8.85 in [3]; 8.68 in data set [4] (setting [14]); 8.16 in data set [5] (setting [11]); 8.00 in data set [5] (MCF-7). Moreover, the negative logarithm of the IC50 (pIC50) is 8.38 in data set [6]; 7.92 in data set [7]; 8.29 in data set [8]; 8.01 with MCF-7/Adr (Homo sapiens, NCI/ADR-RES); 7.73 in the data set with MCF-7/Adr. Besides, the “cross-resistance (fold of resistance vs parent cell line)” value in the data set on MCF-7/Adr was 1.4 x and 1.9 x. For the same compound, the “Therapeutic Effect Rank Order” value is “Taxol, CPT-11≈dEpoB, dEpoF” in [9] and “dEpoF>>>15-azaEpoB” in data set [10] (setting [13]). Also, the “tumor free mice on day 28” value in [10] (CCRF-CEM, dEpoF 30 mg/kg, 6 hr-i.v. infusion Q2D×6) is reported as “one of three mice was tumor free”. Further, in data set [10] (dEpoF 30 mg/kg), the “body-weight reduction on day 28” value was “about 10%”.
